The numbers were not newly measured in patent US6498171B2, “Hydroxyomeprazole compositions” (Sepracor Inc., priority 1998, dated 2002), which cites them from elsewhere.

Series [1] concerns isolated gastric glands. The settings on record: read-out: IC50, inhibitory effect on aminopyrine uptake.
For series [2] the following is noted: humans.
For series [3] the following is noted: poor metabolizers vs extensive metabolizers, serum.

By IC50 is commonly meant the concentration that gives 50% inhibition. `COc1ccc2[nH]c([S+]([O-])Cc3ncc(CO)c(OC)c3C)nc2c1` (racemic) [racemic hydroxyomeprazole]: in series [1], the IC50 is 33 µM.

For the molecule `COc1ccc2[nH]c([S+]([O-])Cc3ncc(C)c(OC)c3C)nc2c1` (racemic) [racemic omeprazole, Omeprazole], in series [2], the “Cmax is at (time)” value was 0.5 to 3.5 h. The serum half-life in series [2] (highly variable) was 30 to 60 min. Also, the IC50 in series [1] was 0.48 µM.

For the molecule `COc1ccc2nc(S(=O)(=O)Cc3ncc(C)c(OC)c3C)[nH]c2c1` [omeprazole sulfone], the “8-hour AUC, poor metabolizers relative to extensive metabolizers” value in series [3] was “more than 10 times higher”.
